Assay results published in patent US9676774B2, “Compounds and compositions for treatment of cancer” (Sunesis Pharmaceuticals, Inc., priority 2006, dated 2017).
pIC50: −log10 of the molar value.

Experiments:
HCT-116 cells = test: MTT cell viability (cytotoxicity) assay in HCT-116 cells; format: cell-based; conditions: Homo sapiens, 72 hours incubation, highest concentration 5 μM, read-out: IC50 (reduced cell viability)
Method: MTT Dye Solution: 5 mg/mL MTT dye (Sigma #M2128) in sterile PBS, filter sterilized, stored at 4° C. in a dark bottle no longer than 1 month.
Lysis Buffer: 50% N,N-dimethyl formamide (Aldich #31,993-7) in dH20, 20% w/v lauryl sulfate (added with stirring at 37° C.) (Sigma #L4509), adjusted pH to 4.7 with 2.5% of 80% acetic acid (Fisher #A490-212) and 2.5% 1 N HCl (Spectrum #HY105).
Supplemented RPMI media: 500 mL RPMI (Cellgro #10-040-CV), 10% FBS (Cellgro #35-011CV) and 1% Sodium Bicarbonate solution (Cellgro @35-035-CI), 1% Antibotic Solution (100× stock; Cellgro #30-004CI).
HCT-116 cells were purchased from ATTC (#CCL-247).
Background: No cells, Totals: Cells treated with DMSO only
96-well tissue culture-treated flat bottom plates (Costar #3595) were plated with 4000 trypsinized cells in 100 μL/well and incubated overnight. 100× stock concentrations of compounds were prepared in DMSO and serially diluted two-fold in DMSO in a 96-well polypropylene v-bottom plate (Costar #3363). 5 μL of DMSO dilutions were then added to 45 μL supplemented RPMI, and 10 μL/well of this mixture were added to plates containing HCT-116 cells. The highest concentration of compounds was 5 μM. Plates were incubated for 72 hours at 37° C. in an incubator (5% CO2).
After incubation, 20 μL of MTT solution were added to each well and incubated at 37° C. for 1.5 hour. 100 μL lysis buffer was then added and plates were incubated for 48 hours at 37° C. Cell viability was then recorded by absorbance at 595 nm using a Biorad Benchmark Microplate Reader. The fraction of dead cells was determined by Fraction of Dead cells=Absorbance of sample well−Avg(no cell control)/Avg(Absorbance of DMSO only Control)−Avg(no cell control).

[1] = In vitro reaction of SNS-595 with pooled human liver microsomes (product identification); format: in vitro ADME; conditions: for product formed from SNS-595 in liver microsomes: human liver microsomes 1 mg/mL, 10 or 100 μM SNS-595, 60 min, 37° C., NADPH
Method: The in vitro production of N-Desmethyl SNS-595 from SNS-595 was monitored as described herein. The pooled Human Liver Microsomes were obtained from BD Gentest and NADPH was obtained from Sigma.
The in vitro reactions were performed (a) in the presence of NADPH as a cofactor and (b) in the absence of NADPH to identify any SNS-595 derivatives generated by cofactor independent mechanisms.
The reaction mixture constituted 100 mM Sodium Phosphate buffer, pH 7.4, containing 3.3 mM MgCl2, 1 mg/mL liver microsomal protein, 10 or 100 μM SNS-595, and 1 mM NADPH for reaction with NADPH. In both the NADPH plus and minus reactions, SNS-595 was added to the reaction mixture and allowed to equilibrate to 37° C. for 10 minutes before starting the reaction by adding NADPH or an equivalent volume of buffer. Reactions were performed in a volume of 1 mL in 2 mL 96-well polypropylene assay blocks. The reaction was stopped by adding an equal volume of acetonitrile at both 0 and 60 minutes after initiating the reaction. Samples were placed on ice until centrifugation at 4100 g for 10 minutes to remove proteins for subsequent analysis.
SNS-595 and the reaction products were identified on an API 4000 mass spectrometer coupled to a turbo electro spray ionization source. Prior to MS analysis chromatography was performed to achieve separation of the reaction precuts (N-desmethyl-SNS-595 had the […] SNS-595). The HPLC system consisted of an Agilent 1100 binary pump and single wavelength UV/Vis as a detector, and a Phenomenex Synergi Hydro-RP column (150×2 mm, 4 micron, 80 Å particle size). Following column separation, UV spectra were collected at 350 nm before mass spectral analysis. Mass spectral identification of the reaction products was done using a series of three experiments; MS full scan, product ion scans on all reaction products identified in the MS full scan analysis as well as multiple reaction monitoring (MRM) or product ion scans on theoretically possible reaction products. […]

product formed from SNS-595 in liver microsomes [1] | product detectable after incubation of SNS-595 in liver microsomes ([1]; human liver microsomes, 10 μM incubation concentration of SNS-595) | Compound | pIC50 (HCT-116 cells)
predominant product formed | only product detectable | CO[C@H]1CN(c2ccc3c(=O)c(C(=O)O)cn(-c4nccs4)c3n2)C[C@@H]1N [N-desmethyl-SNS-595, (+)-1,4-dihydro-7-[(3S,4S)-3-methoxy-4-amino-1-pyrrolidinyl]-4-oxo-1-(2-thiazolyl)-1,8-naphthyridine-3-carboxylic acid] | 6.29
second product formed | – | CN[C@H]1CN(c2ccc3c(=O)c(C(=O)O)cn(-c4nccs4)c3n2)C[C@@H]1O [O-desmethyl-SNS-595, (+)-1,4-dihydro-7-[(3S,4S)-3-hydroxy-4-methylamino-1-pyrrolidinyl]-4-oxo-1-(2-thiazolyl)-1,8-naphthyridine-3-carboxylic acid] | < 5.30
– | – | CN[C@H]1CN(c2ccc3c(=O)c(C(=O)O)cn(-c4nccs4)c3n2)C[C@@H]1OC [SNS-595, (+)-1,4-dihydro-7-[(3S,4S)-3-methoxy-4-(methylamino)-1-pyrrolidinyl]-4-oxo-1-(2-thiazolyl)-1,8-naphthyridine-3-carboxylic acid] | 6.37
